# Test results reported in patent US7511041B2, “Fused azole-pyrimidine derivatives” (Bayer Pharmaceuticals Corporation, priority 2002, dated 2009).
# Structures can show the parent of a compound that is named as a salt.
row,melting point,SMILES
1,289 °C (dec.),COc1cc(OC)c2c(c1)C1=NCCN1C(NC(=O)c1ccc3[nH]cnc3c1)=N2.Cl [Example 2-73]
2,217 to 222 °C,Cl.O/C(=C\C1=Nc2ccccc2C2=NCCN12)c1cnccn1 [Example 1-142]
3,> 300 °C,Cl.O/C(=C\C1=Nc2c(OCC3CC3)cccc2C2=NCCN12)c1cccnc1 [Example 1-89]
4,235 °C (dec.),Cl.O/C(=C\C1=Nc2ccccc2C2=NCCN12)c1ccncc1 [Example 1-176]
5,335 °C (dec.),Cl.O=C(NC1=Nc2ccccc2C2=NCCN12)c1csc(-c2ccncc2)n1 [Example 2-322]
6,276 °C,Cc1ccc2c(c1)N=C(NC(=O)c1cccs1)N1CCN=C21.Cl [Example 2-32]
7,> 300 °C,Cc1ccc(/C(O)=C/C2=Nc3ccccc3C3=NCCN23)cn1.Cl [Example 1-137]
8,270 °C,Cl.O=C(NC1=Nc2c(cccc2C(F)(F)F)C2=NCCN12)c1ccc2[nH]cnc2c1 [Example 2-113]
9,282 °C,CCOC(=O)c1cc(C(=O)NC2=Nc3ccccc3C3=NCCN23)cc(C(=O)OCC)c1.Cl [Example 2-275]
10,259 °C (dec.),Cl.O/C(=C\C1=Nc2c(CN3CCOCC3)cccc2C2=NCCN12)c1cccnc1 [Example 1-207]
11,320 °C (dec.),CS(=O)(=O)c1ccc(C(=O)NC2=Nc3ccccc3C3=NCCN23)cc1.Cl [Example 2-246]
12,275 to 277 °C,C=Cc1ccc2c(c1)C1=NCCN1C(NC(=O)c1cccnc1)=N2.Cl [Example 2-96]
13,215 °C (dec.),COc1c(OCCO)ccc2c1N=C(/C=C(\O)c1cccnc1)N1CCN=C21.Cl [Example 1-17]
14,> 290 °C,Cl.O/C(=C\C1=Nc2c(cccc2C(F)(F)F)C2=NCCN12)c1cccnc1 [Example 1-81]
15,270 °C,COc1c(C)ccc2c1N=C(/C=C(\O)c1ccc3[nH]cnc3c1)N1CCN=C21.Cl [Example 1-35]
16,312 °C (dec.),Cl.O/C(=C\C1=Nc2cc(N3CCOCC3)ccc2C2=NCCN12)c1cncc(O)c1 [Example 1-99]
17,237 °C (dec.),COc1cccc2c1N=C(NC(=O)c1cccnc1)N1CCN=C21.Cl [Example 2-115]
18,273 °C (dec.),COc1ccc2c(c1)N=C(NC(=O)c1ccc(N)nc1)N1CCN=C21.Cl [Example 2-24]
19,270 °C (dec.),Cc1nc2ncccc2cc1C(=O)NC1=Nc2ccccc2C2=NCCN12.Cl [Example 2-175]
20,> 290 °C,Cc1cccc2c1N=C(/C=C(\O)c1cccnc1)N1CCN=C21.Cl [Example 1-76]
21,230 °C (dec.),COc1cc2c(c(OC)c1C)N=C(NC(=O)c1cccnc1C)N1CCN=C21.Cl [Example 2-78]
22,309 to 310 °C,Cl.O=C(NC1=Nc2ccccc2C2=NCCN12)c1c[nH]cn1 [Example 2-194]
23,300 °C (dec.),Cl.O=C(NC1=Nc2ccccc2C2=NCCN12)c1ccc([N+](=O)[O-])s1 [Example 2-304]

row,melting point,SMILES
1,> 290 °C,Cc1cccc2c1N=C(NC(=O)c1ccc3[nH]cnc3c1)N1CCN=C21.Cl [Example 2-110]
2,235 to 240 °C,Cl.O/C(=C\C1=Nc2ccccc2C2=NCCN12)c1ccccn1 [Example 1-174]
3,267 °C (dec.),Cc1ccc(C(=O)NC2=Nc3cc(N4CCOCC4)ccc3C3=NCCN23)cn1.Cl [Example 2-14]
4,266 to 268 °C,COc1cc2c(cc1OC)C1=NCCN1C(/C=C(\O)c1cccs1)=N2.Cl [Example 1-59]
5,292 °C (dec.),CSc1ccc(C(=O)NC2=Nc3ccccc3C3=NCCN23)cc1.Cl [Example 2-244]
6,> 260 °C,CC(=O)Nc1ccc(/C(O)=C/C2=Nc3c(CN4CCOCC4)cccc3C3=NCCN23)cn1.Cl [Example 1-209]
7,> 285 °C,CC(=O)Nc1ccc(/C(O)=C/C2=Nc3c(C)cccc3C3=NCCN23)cn1.Cl [Example 1-78]
8,227 °C,CC(=O)Nc1ccc(C(=O)NC2=Nc3cc(N4CCOCC4)ccc3C3=NCCN23)cc1 [Example 2-15]
9,285 °C,COc1cc2c(c(OC)c1C)N=C(/C=C(\O)c1cccnc1)N1CCN=C21.Cl [Example 1-63]
10,313 °C (dec.),Cc1cc(C(=O)NC2=Nc3ccccc3C3=NCCN23)cc(C)c1[N+](=O)[O-].Cl [Example 2-223]
11,285 °C,COc1cccc2c1N=C(/C=C(\O)c1cccnc1)N1CCN=C21.Cl [Example 1-69]
12,240 to 241 °C,COc1c(OCC(=O)N2CCOCC2)ccc2c1N=C(/C=C(\O)c1cccnc1)N1CCN=C21.Cl [Example 1-30]
13,261 to 262 °C,Cl.O/C(=C\C1=Nc2c(OCCN3CCOCC3)cccc2C2=NCCN12)c1cccnc1 [Example 1-85]
14,304 °C (dec.),CN(C=O)c1ccc(C(=O)NC2=Nc3ccccc3C3=NCCN23)cc1.Cl [Example 2-264]
15,217 to 218 °C,COc1c(OCc2nn[nH]n2)ccc2c1N=C(/C=C(\O)c1cccnc1)N1CCN=C21.Cl [Example 1-197]
16,319 °C (dec.),Cl.O=C(NC1=Nc2ccccc2C2=NCCN12)c1ccc(-n2cccn2)cc1 [Example 2-271]
17,238 °C,COc1cccc2c1N=C(NC(=O)c1ccc3[nH]cnc3c1)N1CCN=C21.Cl [Example 2-125]
18,312 °C (dec.),CC(=O)Nc1ccc(C(=O)NC2=Nc3ccccc3C3=NCCN23)cn1.Cl [Example 2-152]
19,210 °C (dec.),COc1ccc2c(c1OC)N=C(NC(=O)c1cnc3[nH]cnc3c1)N1CCN=C21.Cl [Example 2-52]
20,246 °C,CC(=O)Nc1ccc(/C(O)=C/C2=Nc3cc(N4CCOCC4)ccc3C3=NCCN23)cn1.Cl [Example 1-97]
21,215 °C,COc1ccc2c(c1OCCN1CCOCC1)N=C(/C=C(\O)c1cccnc1)N1CCN=C21.Cl [Example 1-37]
22,297 °C (dec.),Cl.O=C(NC1=Nc2ccccc2C2=NCCN12)c1ccsc1 [Example 2-184]
23,328 °C (dec.),Cc1nc2ccccn2c1C(=O)NC1=Nc2ccccc2C2=NCCN12.Cl [Example 2-171]

row,melting point,SMILES
1,280 °C (dec.),COc1cc2c(c(OC)c1C)N=C(NC(=O)c1ccc3[nH]cnc3c1)N1CCN=C21.Cl [Example 2-82]
2,280 °C (dec.),CC(=O)Nc1ccc(/C(O)=C/C2=Nc3cc(N4CCN(C)CC4)ccc3C3=NCCN23)cn1.Cl [Example 1-106]
3,290 °C (dec.),Cl.Nc1ccc(C(=O)NC2=Nc3ccccc3C3=NCCN23)cn1 [Example 2-150]
4,315 °C,Cc1ccc2c(c1)N=C(NC(=O)c1cccnc1)N1CCN=C21.Cl [Example 2-28]
5,260 °C (dec.),COc1cc2c(cc1OC)C1=NCCN1C(NC(=O)c1cncc(O)c1)=N2.Cl [Example 2-55]
6,> 290 °C,Cc1cccc2c1N=C(NC(=O)c1cccnc1)N1CCN=C21.Cl [Example 2-108]
7,287 °C (dec.),Cl.O=C(NC1=Nc2ccccc2C2=NCCN12)c1cnc2[nH]cnc2c1 [Example 2-173]
8,225 °C (dec.),COc1cccc2c1N=C(NC(=O)c1cc3cccnc3nc1C)N1CCN=C21.Cl [Example 2-127]
9,270 °C,Cl.O=C(NC1=Nc2cc(Cl)ccc2C2=NCCN12)c1ccc2[nH]cnc2c1 [Example 2-40]
10,308 °C (dec.),Cl.NS(=O)(=O)c1ccc(C(=O)NC2=Nc3ccccc3C3=NCCN23)cc1 [Example 2-248]
11,205 °C (dec.),COc1c(OCC(=O)N(C)C)ccc2c1N=C(/C=C(\O)c1cccnc1)N1CCN=C21.Cl [Example 1-28]
12,292 °C (dec.),COc1ccc2c(c1)N=C(NC(=O)c1cccnc1)N1CCN=C21.Cl [Example 2-21]
13,316 °C,Cl.O=C(NC1=Nc2ccc(Br)cc2C2=NCCN12)c1cccnc1 [Example 2-88]
14,324 °C (dec.),Cl.O=C(NC1=Nc2ccccc2C2=NCCN12)c1ccc(-n2ccnc2)cc1 [Example 2-269]
15,> 290 °C,Cc1ccc2c(c1)C1=NCCN1C(/C=C(\O)c1cccnc1)=N2.Cl [Example 1-132]
16,> 300 °C,Cl.O=C(NC1=Nc2c(F)cccc2C2=NCCN12)c1ccc2[nH]cnc2c1 [Example 2-102]
17,249 °C (dec.),Cl.O=C(NC1=Nc2cc(OCCO)ccc2C2=NCCN12)c1cccnc1 [Example 2-198]
18,280 °C (dec.),O/C(=C\C1=Nc2cc(Cl)ccc2C2=NCCN12)c1cccnc1 [Example 1-117]
19,298 °C,COc1ccc2c(c1Br)N=C(NC(=O)c1cccnc1)N1CCN=C21.Cl [Example 2-66]
20,289 °C (dec.),Cc1nc(N)ccc1C(=O)NC1=Nc2ccccc2C2=NCCN12.Cl [Example 2-158]
21,> 300 °C,COc1ccc2c(c1)C1=NCCN1C(/C=C(\O)c1cccnc1)=N2.Cl [Example 1-127]
22,> 330 °C,O/C(=C\C1=Nc2ccc(Cl)cc2C2=NCCN12)c1cccnc1 [Example 1-130]
23,276 °C,COc1cc2c(cc1OC)C1=NCCN1C(NC(=O)c1ccc3[nH]cnc3c1)=N2.Cl [Example 2-61]

row,SMILES,melting point
1,Cc1cnc(C(=O)NC2=Nc3ccccc3C3=NCCN23)cn1.O=C(O)C(F)(F)F [Example 2-295],231 °C (dec.)
2,O=C(NC1=Nc2ccccc2C2=NCCN12)c1ccc(Cl)cc1.O=C(O)C(F)(F)F [Example 2-230],243 to 245 °C
3,"COc1c(O)ccc2c1N=C(/C=C(\O)c1cccnc1)N1CCN=C21 (as salt: hydrochloride) [Example 1-4, 5-(2-Hydroxy-2-pyridin-3-ylvinyl)-7-methoxy-2,3-dihydroimidazo[1,2-c]quinazolin-8-ol hydrochloride]",245 °C
4,O=C(NC1=Nc2ccccc2C2=NCCN12)c1ccccn1.O=C(O)C(F)(F)F [Example 2-277],206 °C (dec.)
5,O=C(NC1=Nc2ccccc2C2=NCCN12)c1cccc([N+](=O)[O-])c1.O=C(O)C(F)(F)F [Example 2-253],238 to 239 °C
6,O=C(NC1=Nc2ccccc2C2=NCCN12)c1cnccn1.O=C(O)C(F)(F)F [Example 2-293],234 °C (dec.)
